Cytotoxicity data for 96 compounds are collected here from ChEMBL document CHEMBL3507680, “University of Dundee, Gates Library screen for HepG2 cell viability”.

The series is described as follows: Human HepG2 cell viability assay in 384 well format. Also noted: dose 125 nL, time 70.5 hour; cytotoxicity at 70.5 h: concentration not given beside the values. In kind it is toxicity, cell-based. The conditions noted are these: HepG2 cells, read-out: Inhibition.
For `Cc1cccc2c1NC1(CCOCC1)NC2=O`, the cytotoxicity at 70.5 h was -26.4%.

With `CCN1CCc2c(cccc2NC(=O)N(C)C2CCSC2)C1` (stereo unspecified), the cytotoxicity at 70.5 h was -10.8%.

With `CCN1CCN(c2ccccc2NC(=O)N(C)C2CCSC2)CC1` (stereo unspecified), the cytotoxicity at 70.5 h is -13.8%.

`CCC(C(=O)Nc1ccc2c(C)n[nH]c2c1)N1CCCC1=O` (stereo unspecified): the cytotoxicity at 70.5 h came to 21.5%.

In the case of `CC(=O)NCCNC(=O)c1cc(C)ccc1SC1CCCC1`, the cytotoxicity at 70.5 h was -11.6%.

For `Cc1ccnc(NC(=O)C2CCN(CCCn3ccnc3C)CC2)c1`, the cytotoxicity at 70.5 h is -13%.

On to `O=S(=O)(Cc1ccc(F)cc1F)NCCOc1cccnc1`, for which the cytotoxicity at 70.5 h was -18.9%.

`Cc1ccc(SC2CCCC2)c(C(=O)NCCO)c1`: the cytotoxicity at 70.5 h was -23.4%.

For the compound `CC(O)CNc1ccc(C#N)cc1C(F)(F)F` (stereo unspecified), the cytotoxicity at 70.5 h is -12.9%.

Turning to `O=C(CCC1CCCO1)NCCc1ccccn1` (stereo unspecified), the cytotoxicity at 70.5 h was -10%.

In the case of `Cc1csc(N2CCN(Cc3nnsc3Cl)CC2C)n1` (stereo unspecified), the cytotoxicity at 70.5 h is -16%.

Take `CCn1c(CN(C)Cc2cnc(C)s2)nc2cc(F)ccc21`: the cytotoxicity at 70.5 h came out at 10.8%.

Consider `CC1CN(Cc2nnsc2Cl)CCN1c1nccs1` (stereo unspecified), for which the cytotoxicity at 70.5 h is -19.1%.

For `CO[C@H]1CN(C(=O)OC(C)(C)C)CC1NCc1ccn(C)c1` (stereo partly specified), the cytotoxicity at 70.5 h was -6.04%.

For `c1csc(C(CNCc2cccc3c2OCO3)N2CCOCC2)c1` (stereo unspecified), the cytotoxicity at 70.5 h was -13.2%.

As for `NC(=O)c1cccc(CCNCc2cnc(C3CCC3)s2)c1`, the cytotoxicity at 70.5 h worked out at 7.84%.

As to `Cc1nn(C)c(C)c1NC(=O)CN1CCCC1c1noc(C2CC2)n1` (stereo unspecified), the cytotoxicity at 70.5 h was 8.6%.

Consider `CS(=O)(=O)c1ccccc1C(=O)NCC1Cc2ccccc2O1` (stereo unspecified), for which the cytotoxicity at 70.5 h is -4.69%.

Regarding `Cc1nccn1-c1cc(CNC(=O)C(C)(C)C)ccn1`, the cytotoxicity at 70.5 h is -4.88%.

For `Cc1nccn1-c1cc(CNC(=O)c2ccccn2)ccn1`, the cytotoxicity at 70.5 h is -4.56%.

Regarding `CCCOc1ccc(NC(=O)NCCC(=O)N(C)C)cc1Cl`, the cytotoxicity at 70.5 h was -4.39%.

Take `N#Cc1ccc(CNCC2CCN(CCO)CC2)cc1`: the cytotoxicity at 70.5 h was -5.67%.

`O=C(CCc1nccs1)N1CCC(N2CCNC2=O)CC1`: the cytotoxicity at 70.5 h was -3.7%.

`O=C(Cc1cccs1)NC1CCN(c2cccc(F)c2)CC1`: the cytotoxicity at 70.5 h was found to be 1.18%.

Take `Cc1cc(NC(=O)CN2CCCC2c2noc(C3CC3)n2)no1` (stereo unspecified): the cytotoxicity at 70.5 h amounted to 1.09%.

For `Cc1cc(N2CCC(N(C)C(=O)Nc3ccccc3)CC2)nc(C)n1`, the cytotoxicity at 70.5 h was determined as 2.35%.

With `O=C(NCC(O)c1ccccc1Cl)c1cccc(-n2cnnn2)c1` (stereo unspecified), the cytotoxicity at 70.5 h was -0.179%.

As to `C1CC1c1nsc(N2CCN(C3CC3)CC2)n1`, the cytotoxicity at 70.5 h was found to be 1.41%.

As for `Cn1c(CN2CCN(CC3CC3)CC2)nnc1C1CCC1`, the cytotoxicity at 70.5 h amounted to 20.3%.

Take `CCN1CCCC1CN(CCN(C)C)S(=O)(=O)c1cccc(C#N)c1` (stereo unspecified): the cytotoxicity at 70.5 h is -1.36%.

Regarding `Cc1cccc(CNCc2c(C(C)C)nn(C)c2N2CCOCC2)n1`, the cytotoxicity at 70.5 h was 0.6%.

Consider `Cc1nc(C)n(CC2CCCN2CC(=O)NCCc2ccccc2)n1` (stereo unspecified), for which the cytotoxicity at 70.5 h was -4.21%.

For the compound `Cc1cc(CNC(=O)N2CCN(c3ccccc3)CC2)no1`, the cytotoxicity at 70.5 h was -3.89%.

As to `CCS(=O)(=O)CCn1ccc(NC(=O)CCc2cccc(C)c2)n1`, the cytotoxicity at 70.5 h is -2.75%.

With `CC(Oc1ccccc1C(F)(F)F)C(=O)NS(=O)(=O)C(C)C` (stereo unspecified), the cytotoxicity at 70.5 h is 1.98%.

For `Cc1nc(C)n(C2CCCN(C(=O)c3ccc(F)cc3F)C2)n1` (stereo unspecified), the cytotoxicity at 70.5 h is -4.94%.

For the compound `Cc1nc(C)c(CNC(=O)NC(c2nnc3n2CCC3)C(C)C)s1` (stereo unspecified), the cytotoxicity at 70.5 h was -1.59%.

As for `Cc1ncsc1C(=O)NCCOc1ncc(Cl)cc1Cl`, the cytotoxicity at 70.5 h was found to be 1.13%.

As for `CC(C)C(NC(=O)NCC1(CO)CC1)c1nnc2n1CCC2` (stereo unspecified), the cytotoxicity at 70.5 h is -4.32%.

`Cc1cc(CNC(=O)N2CCN(c3nc(C)c(C)s3)CC2)no1`: the cytotoxicity at 70.5 h was found to be 7.38%.

As to `Cc1nccc(C(=O)N2CCCN(Cc3cnn(C(C)C)c3)CC2)n1`, the cytotoxicity at 70.5 h is -4.5%.

`CCn1ccnc1CN1CCN(CCC(=O)NC(C)(C)C)CC1C` (stereo unspecified): the cytotoxicity at 70.5 h was -1.52%.

On to `CCc1ccc(NC(=O)N2C[C@H]3C[C@H](C(=O)N4CCCC4)[C@@H](C2)O3)cc1`, for which the cytotoxicity at 70.5 h was determined as 21%.

With `O=C(c1ccc[nH]1)N1CCc2ncc(Cn3cccn3)n2CC1`, the cytotoxicity at 70.5 h came out at 18.1%.

On to `O=C(Nc1ccc(F)cc1)N1C[C@H]2C[C@H](C(=O)N3CCCC3)[C@@H](C1)O2`, for which the cytotoxicity at 70.5 h is -9.47%.

With `CN(C)C(=O)N1CCC(c2nc3ccc(-c4ccccc4)cn3n2)CC1`, the cytotoxicity at 70.5 h was -4.01%.

Take `CC(C)OC[C@H]1CCC[C@]12CN(S(=O)(=O)c1cn(C)cn1)CCO2`: the cytotoxicity at 70.5 h was -4.1%.

Consider `O=c1cc(Cn2ccnc2)nc2n1CCCN(S(=O)(=O)C1CC1)C2`, for which the cytotoxicity at 70.5 h was -11.3%.

Take `Cc1cc(C(=O)N2CC[C@H]3[C@H]2CCN3S(C)(=O)=O)c(C)o1`: the cytotoxicity at 70.5 h came to 0.739%.

In the case of `CN(C)C(=O)CN1CCc2ncnc(C3CC3)c2CC1`, the cytotoxicity at 70.5 h amounted to 2.76%.

For `CC(C)NC(=O)N1CC[C@@H]2CN(S(C)(=O)=O)CCO[C@@H]2C1`, the cytotoxicity at 70.5 h was -4.96%.

Take `CO[C@H]1CO[C@@]2(CCCN(S(=O)(=O)c3ccccc3)C2)C1`: the cytotoxicity at 70.5 h was -10.1%.

As for `O=S(=O)(c1ccccc1)N1CC[C@]2(C[C@@H](OCC3CC3)CO2)C1`, the cytotoxicity at 70.5 h was -10.2%.

Turning to `Cn1cc(CN2CCCC23CCN(S(C)(=O)=O)CC3)cn1`, the cytotoxicity at 70.5 h was -2.11%.

Turning to `Cc1cc(CN2CCC3(CC2)C(=O)NCCN3CC2CC2)oc1C`, the cytotoxicity at 70.5 h was found to be 9.39%.

In the case of `C[C@H]1C[C@@H]2CCN(C(=O)c3cccn3C)C[C@H]2O1`, the cytotoxicity at 70.5 h is -12.7%.

With `CN(C)CCN1CCC2(CC1)CN(c1cccnc1)C(=O)CO2`, the cytotoxicity at 70.5 h was -13.5%.

Regarding `O=C(c1cnccn1)N1CCc2onc(CN3CCOCC3)c2C1`, the cytotoxicity at 70.5 h is 23.2%.

On to `CNC(=O)c1nc2c(s1)CCN(C(=O)Cc1ccc(OC)cc1)CC2`, for which the cytotoxicity at 70.5 h was found to be 20.5%.

On to `Cc1cc(C(=O)N2CCc3ncc(CN4CCOCC4)n3CC2)no1`, for which the cytotoxicity at 70.5 h was 28.9%.

As for `CC(C)CN1C[C@H]2C[C@H](C(=O)Nc3cccnc3)[C@@H](C1)O2`, the cytotoxicity at 70.5 h is -4.05%.

Take `Cc1cc(C(=O)N2CC[C@@H]3CN(c4ncccn4)CCO[C@@H]3C2)c(C)o1`: the cytotoxicity at 70.5 h is -12.2%.

In the case of `O=C(O)CC1CN(Cc2ccccc2)CCO1` (stereo unspecified), the cytotoxicity at 70.5 h is -0.381%.

On to `O=C(NCc1cncc2c1CCN(C1CCOCC1)C2)c1ccno1`, for which the cytotoxicity at 70.5 h is -7.6%.

`O=C(NCc1cncc2c1CCN(C1CCOCC1)C2)c1ccco1`: the cytotoxicity at 70.5 h is -2.15%.

Consider `c1cncc(OC[C@@H]2CCC[C@@]23CNCCO3)c1`, for which the cytotoxicity at 70.5 h was determined as 14.3%.

On to `O=C(C1CCCO1)N1CCCC2(CCN(c3cccnc3)CC2)C1` (stereo unspecified), for which the cytotoxicity at 70.5 h was -3.98%.

With `Cn1ccnc1CN1CCc2onc(COCC3CC3)c2C1`, the cytotoxicity at 70.5 h is -4.62%.

As for `CN(C)C(=O)CN1CC[C@]2(CN(CC3CC3)C[C@H]2c2ccccc2)C1=O`, the cytotoxicity at 70.5 h was -6.06%.

Consider `CN(C)Cc1cc(=O)n2c(n1)CN(S(=O)(=O)C1CC1)CCC2`, for which the cytotoxicity at 70.5 h was -6.08%.

As for `CN(C)C(=O)CN1CCc2ncnc(NC3CCC3)c2CC1`, the cytotoxicity at 70.5 h is 0.00388%.

Turning to `Cc1cc(C)cc(CN2C[C@@H]3OCCN(CC(=O)N(C)C)[C@@H]3C2)c1`, the cytotoxicity at 70.5 h is -0.77%.

On to `Cc1ncnc2c1CCN(CC(=O)N(C)C)CC2`, for which the cytotoxicity at 70.5 h was -5.19%.

Take `Cc1cccc(S(=O)(=O)N2CC[C@H]3CO[C@H](CN(C)C)[C@H]3C2)c1`: the cytotoxicity at 70.5 h is -6.86%.

On to `CN(C)C(=O)CC1CC2(CCN(CC3CC3)CC2)c2cc(F)ccc21` (stereo unspecified), for which the cytotoxicity at 70.5 h was determined as 35.7%.

Consider `CCc1cnc(N2CCC3(CC2)CN(c2cccnc2)C(=O)CO3)nc1`, for which the cytotoxicity at 70.5 h came out at 23.8%.

Consider `CS(=O)(=O)NC[C@]12COC[C@H]1CN(CC1CCCC1)C2`, for which the cytotoxicity at 70.5 h was -12.8%.

For `CCC1=N[C@@]2(CC[C@@H]3CN(Cc4ccc(Cl)cc4)C[C@@H]32)C(=O)N1C`, the cytotoxicity at 70.5 h is -15.2%.

`Cc1ccc(C(=O)N2CCC3(CCN(C(=O)c4cccnc4)C3)CC2)o1`: the cytotoxicity at 70.5 h is -19.3%.

Regarding `CCN(CC)Cc1cn2c(n1)CN(C(=O)c1cnccn1)CC2`, the cytotoxicity at 70.5 h was -13.4%.

Regarding `Cc1cc(CN2CC[C@H]3C[C@H](C(=O)N4CCC(C)CC4)O[C@H]3C2)no1`, the cytotoxicity at 70.5 h was -9.04%.

For `O=C(c1ccc(F)cc1)N1C[C@H]2CCC[C@@]2(COCc2ccccn2)C1`, the cytotoxicity at 70.5 h is -15.6%.

In the case of `O=C(NC1CC1)[C@@H]1CCO[C@@H]2CCN(Cc3ccsc3)C[C@H]21`, the cytotoxicity at 70.5 h was -2.46%.

On to `Cn1cc(CN2CCC[C@]3(C[C@@H](Oc4ncccc4F)CO3)C2)cn1`, for which the cytotoxicity at 70.5 h is -6.45%.

With `COc1ncccc1CN1C[C@H]2CCN(C(C)C)C[C@H]2C1`, the cytotoxicity at 70.5 h is -4.86%.

As for `Cc1nc(CN2CCN3C[C@H](Oc4cncnc4)C[C@H]3C2)cs1`, the cytotoxicity at 70.5 h is 5.24%.

In the case of `Cn1ccc(CN2CCCC23CCN(Cc2cccc(F)c2)CC3)n1`, the cytotoxicity at 70.5 h was 0.351%.

In the case of `Cn1ccc(CN2CCCC23CCN(Cc2nccn2C)CC3)n1`, the cytotoxicity at 70.5 h is -2.05%.

Consider `Cn1ccnc1CN1CCCC2(CCN(CC3CCCO3)CC2)C1` (stereo unspecified), for which the cytotoxicity at 70.5 h is 4.14%.

In the case of `c1cc(CN2CCO[C@H]3[C@H](OCC4CCCC4)CC[C@@H]32)ccn1`, the cytotoxicity at 70.5 h is -5.29%.

Consider `CN(C)CCN1CCO[C@@H]2CN(C(=O)c3cccs3)CC[C@@H]2C1`, for which the cytotoxicity at 70.5 h was -16.4%.

Regarding `CC(C)CN1C[C@H]2CCN(Cc3cccnc3)CC[C@H]2S1(=O)=O`, the cytotoxicity at 70.5 h was -10.9%.

Take `CC(C)N1Cc2c(C(=O)N3CCOCC3)nn(C)c2C1`: the cytotoxicity at 70.5 h is -13.7%.

For the compound `O=C(c1ccnnc1)N1C[C@@H]2OCCN(CCN3CCCC3)[C@@H]2C1`, the cytotoxicity at 70.5 h was found to be 4.4%.

Turning to `FC1(F)CCN(Cc2ccncc2)CC12CCN(Cc1ccccn1)C2` (stereo unspecified), the cytotoxicity at 70.5 h worked out at 14.3%.

Take `c1ccc(NCc2cn3c(n2)CN(Cc2cccnc2)CC3)nc1`: the cytotoxicity at 70.5 h was -10%.
